Test results taken from ChEMBL document CHEMBL1201862, “PubChem BioAssay data set” (2004).
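Assay format: 96-well plates, 48-hour exposure. GI50: concentration for 50% inhibition of growth.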 Calls of active or inactive are those of the source. Rule as the data show it: active = GI50 up to about 1.1 µM and inactive = higher.

What was measured:
Experiment in all cases: growth of human tumour cells (NCI), 48 h
OVCAR-4 = system: OVCAR-4
NCI-H226 = system: NCI-H226
A549 = system: A549
OVCAR-8 = system: OVCAR-8
UACC-62 = system: UACC-62
COLO 205 = system: COLO 205
Malme-3M = system: Malme-3M
NCI-H23 = system: NCI-H23
UACC-257 = system: UACC-257
SF-268 = system: SF-268
SK-OV-3 = system: SK-OV-3
OVCAR-5 = system: OVCAR-5
ACHN = system: ACHN
EKVX = system: EKVX
KM12 = system: KM12
IGROV-1 = system: IGROV-1
A498 = system: A498
CCRF-CEM = system: CCRF-CEM

Measured: GI50

CC1(O)C=CC2CCC1C2O (stereo not given)
inactive: OVCAR-4 > 100 µM | NCI-H226 > 100 µM | A549 68.9 µM | OVCAR-8 > 100 µM | UACC-62 > 100 µM | COLO 205 30.3 µM | Malme-3M > 100 µM | NCI-H23 > 100 µM | UACC-257 > 100 µM | SF-268 29.3 µM | SK-OV-3 > 100 µM | OVCAR-5 > 100 µM | ACHN > 100 µM | EKVX > 100 µM | KM12 > 100 µM | IGROV-1 > 100 µM | A498 > 100 µM | CCRF-CEM > 100 µM

C[C@H](NC(=O)OC1C2C=CC(O)C1CC2)c1ccccc1 (stereo not given in full)
inactive: OVCAR-4 > 100 µM | NCI-H226 > 100 µM | A549 > 100 µM | OVCAR-8 > 100 µM | UACC-62 > 100 µM | COLO 205 40.9 µM | Malme-3M > 100 µM | NCI-H23 > 100 µM | UACC-257 > 100 µM | SF-268 > 100 µM | SK-OV-3 > 100 µM | OVCAR-5 > 100 µM | ACHN > 100 µM | EKVX > 100 µM | KM12 > 100 µM | IGROV-1 > 100 µM | A498 > 100 µM | CCRF-CEM 81.1 µM

CC1OC(OCC2OC(Oc3c(-c4ccc(O)cc4)oc4cc(O)cc(O)c4c3=O)C(OC3OC(C)C(O)C(O)C3O)C(O)C2O)C(O)C(O)C1O (stereo not given)
inactive: OVCAR-4 > 54.8 µM | NCI-H226 > 100 µM | A549 > 100 µM | OVCAR-8 > 100 µM | UACC-62 > 100 µM | COLO 205 > 46 µM | Malme-3M > 100 µM | NCI-H23 > 100 µM | UACC-257 > 100 µM | SF-268 > 100 µM | SK-OV-3 > 100 µM | OVCAR-5 > 100 µM | ACHN > 67.6 µM | EKVX > 100 µM | KM12 > 100 µM | IGROV-1 > 100 µM | A498 > 100 µM | CCRF-CEM > 51.5 µM

CC(=O)N/C(=C\c1ccccc1/C=C(\NC(C)=O)c1nc2cc(C)c(C)cc2[nH]1)c1nc2cc(C)c(C)cc2[nH]1
inactive: NCI-H226 25.8 µM | A549 28 µM | OVCAR-8 19.2 µM | UACC-62 15.6 µM | COLO 205 19.5 µM | Malme-3M 21.7 µM | NCI-H23 8.17 µM | SF-268 24.1 µM | SK-OV-3 34.4 µM | OVCAR-5 36.8 µM | ACHN 14.8 µM | EKVX 12.3 µM | KM12 11.8 µM | IGROV-1 26.5 µM | A498 42.4 µM | CCRF-CEM 26.7 µM

CC(C)N(C(=O)C12C3C4C1C1C4(C#N)C3C12C#N)C(C)C (stereo not given)
inactive: OVCAR-4 > 100 µM | NCI-H226 > 100 µM | A549 > 100 µM | OVCAR-8 > 100 µM | UACC-62 > 100 µM | COLO 205 > 100 µM | Malme-3M > 100 µM | NCI-H23 > 100 µM | UACC-257 > 100 µM | SF-268 > 100 µM | SK-OV-3 > 100 µM | OVCAR-5 > 100 µM | ACHN > 100 µM | EKVX > 100 µM | IGROV-1 > 100 µM | A498 > 100 µM | CCRF-CEM > 100 µM

COc1ccc(C(=O)C(C(=O)CCC(=O)Nc2cccc(C(F)(F)F)c2)c2ccccc2)cc1 (stereo not given)
inactive: OVCAR-4 37.7 µM | NCI-H226 > 100 µM | A549 65.9 µM | OVCAR-8 > 100 µM | UACC-62 91.8 µM | COLO 205 > 100 µM | Malme-3M > 100 µM | NCI-H23 44.8 µM | UACC-257 62.7 µM | SF-268 > 100 µM | SK-OV-3 > 100 µM | OVCAR-5 > 100 µM | ACHN 80.7 µM | EKVX > 100 µM | KM12 > 100 µM | IGROV-1 > 100 µM | A498 > 100 µM | CCRF-CEM 46.8 µM

O=C(c1ccccc1)c1ccc2cccc(OC3OC(CO)C(O)C(O)C3O)c2n1 (stereo not given)
inactive: OVCAR-4 > 100 µM | NCI-H226 > 100 µM | A549 > 100 µM | OVCAR-8 73.6 µM | UACC-62 > 100 µM | COLO 205 > 100 µM | Malme-3M > 100 µM | NCI-H23 > 100 µM | UACC-257 54.7 µM | SF-268 > 100 µM | OVCAR-5 > 100 µM | ACHN > 100 µM | EKVX > 100 µM | KM12 > 100 µM | IGROV-1 > 100 µM | A498 26.8 µM

O=C(O)CNS(=O)(=O)c1ccc(NC(=O)c2ccc([N+](=O)[O-])cc2)cc1
inactive: OVCAR-4 > 100 µM | NCI-H226 > 100 µM | A549 > 100 µM | OVCAR-8 > 100 µM | UACC-62 > 100 µM | COLO 205 > 100 µM | Malme-3M > 100 µM | NCI-H23 > 100 µM | UACC-257 > 100 µM | SF-268 > 100 µM | SK-OV-3 > 100 µM | OVCAR-5 > 100 µM | ACHN > 100 µM | EKVX > 100 µM | KM12 > 100 µM | IGROV-1 > 100 µM | A498 > 100 µM | CCRF-CEM > 100 µM

COC[C@@H]1Cc2cc(OC)c3c(c2[C@H](c2ccc(OC)c(OC)c2)[C@H]1COC)OCO3 [HYPOPHYLLANTHIN]
inactive: A549 69.8 µM | OVCAR-8 > 100 µM | UACC-62 > 100 µM | COLO 205 > 100 µM | Malme-3M 78.9 µM | NCI-H23 > 100 µM | UACC-257 > 100 µM | SF-268 51.6 µM | SK-OV-3 > 100 µM | OVCAR-5 > 100 µM | ACHN 93.8 µM | EKVX > 100 µM | KM12 > 100 µM | IGROV-1 > 100 µM | A498 > 100 µM | CCRF-CEM > 100 µM

COc1cc(C2c3cc4c(cc3[C@@H](Nc3ccc(C(=O)O)cc3)C3COC(=O)[C@H]23)OCO4)cc(OC)c1O (stereo not given in full)
inactive: OVCAR-4 20.2 µM | NCI-H226 3.72 µM | A549 18.3 µM | OVCAR-8 14.6 µM | UACC-62 10.6 µM | Malme-3M 13.7 µM | NCI-H23 10.6 µM | UACC-257 27.2 µM | SF-268 14.6 µM | ACHN 31.6 µM | EKVX 27.4 µM | KM12 21.6 µM | IGROV-1 17.8 µM | A498 18.7 µM | CCRF-CEM 2.78 µM

C=CCC12CC(=O)CCC1CC(=O)C2 (stereo not given)
inactive: OVCAR-4 > 100 µM | NCI-H226 > 100 µM | A549 > 100 µM | OVCAR-8 > 100 µM | UACC-62 > 100 µM | COLO 205 > 100 µM | Malme-3M > 100 µM | UACC-257 > 100 µM | SF-268 > 100 µM | SK-OV-3 > 100 µM | ACHN > 100 µM | KM12 > 100 µM | IGROV-1 > 100 µM | A498 > 100 µM | CCRF-CEM > 100 µM

CCOC(=O)C1=C(C)N(NC(=O)OC)C2(N)N(NC(=O)OC)C(C)=C(C(=O)OCC)C12C#N (stereo not given)
inactive: OVCAR-4 > 100 µM | NCI-H226 > 100 µM | A549 > 100 µM | OVCAR-8 > 100 µM | UACC-62 > 100 µM | Malme-3M > 100 µM | UACC-257 > 100 µM | SF-268 > 100 µM | SK-OV-3 > 100 µM | OVCAR-5 > 100 µM | ACHN > 100 µM | EKVX > 100 µM | KM12 > 100 µM | IGROV-1 > 100 µM | A498 > 100 µM
